From article doi:10.1101/2023.03.24.534094v2 (biorxiv, 2023) come the findings set out here.

Holding throughout (test): biochemical
Assay [1] has as its target NDR2 (Homo sapiens, UniProt Q9Y2H1).
Assay [2] addresses T1, DRAK2 (Homo sapiens, UniProt O94768).
T1 sequence (O94768 1-372): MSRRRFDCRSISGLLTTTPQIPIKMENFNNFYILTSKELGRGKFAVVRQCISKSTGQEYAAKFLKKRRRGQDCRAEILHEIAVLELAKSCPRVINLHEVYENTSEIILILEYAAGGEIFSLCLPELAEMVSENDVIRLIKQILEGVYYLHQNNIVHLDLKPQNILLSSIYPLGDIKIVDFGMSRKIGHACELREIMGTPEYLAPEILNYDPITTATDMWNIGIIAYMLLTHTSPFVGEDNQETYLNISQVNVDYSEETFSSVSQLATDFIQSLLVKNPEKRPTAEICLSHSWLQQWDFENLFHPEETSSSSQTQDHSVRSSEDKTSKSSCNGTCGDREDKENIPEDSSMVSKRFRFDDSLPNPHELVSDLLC

Assay [3] concerns the target EpHA4 (Homo sapiens, UniProt P54764).
Assay [4] addresses T2, MAP3K5 (Homo sapiens, UniProt Q99683).
T2 sequence (Q99683 1-1374): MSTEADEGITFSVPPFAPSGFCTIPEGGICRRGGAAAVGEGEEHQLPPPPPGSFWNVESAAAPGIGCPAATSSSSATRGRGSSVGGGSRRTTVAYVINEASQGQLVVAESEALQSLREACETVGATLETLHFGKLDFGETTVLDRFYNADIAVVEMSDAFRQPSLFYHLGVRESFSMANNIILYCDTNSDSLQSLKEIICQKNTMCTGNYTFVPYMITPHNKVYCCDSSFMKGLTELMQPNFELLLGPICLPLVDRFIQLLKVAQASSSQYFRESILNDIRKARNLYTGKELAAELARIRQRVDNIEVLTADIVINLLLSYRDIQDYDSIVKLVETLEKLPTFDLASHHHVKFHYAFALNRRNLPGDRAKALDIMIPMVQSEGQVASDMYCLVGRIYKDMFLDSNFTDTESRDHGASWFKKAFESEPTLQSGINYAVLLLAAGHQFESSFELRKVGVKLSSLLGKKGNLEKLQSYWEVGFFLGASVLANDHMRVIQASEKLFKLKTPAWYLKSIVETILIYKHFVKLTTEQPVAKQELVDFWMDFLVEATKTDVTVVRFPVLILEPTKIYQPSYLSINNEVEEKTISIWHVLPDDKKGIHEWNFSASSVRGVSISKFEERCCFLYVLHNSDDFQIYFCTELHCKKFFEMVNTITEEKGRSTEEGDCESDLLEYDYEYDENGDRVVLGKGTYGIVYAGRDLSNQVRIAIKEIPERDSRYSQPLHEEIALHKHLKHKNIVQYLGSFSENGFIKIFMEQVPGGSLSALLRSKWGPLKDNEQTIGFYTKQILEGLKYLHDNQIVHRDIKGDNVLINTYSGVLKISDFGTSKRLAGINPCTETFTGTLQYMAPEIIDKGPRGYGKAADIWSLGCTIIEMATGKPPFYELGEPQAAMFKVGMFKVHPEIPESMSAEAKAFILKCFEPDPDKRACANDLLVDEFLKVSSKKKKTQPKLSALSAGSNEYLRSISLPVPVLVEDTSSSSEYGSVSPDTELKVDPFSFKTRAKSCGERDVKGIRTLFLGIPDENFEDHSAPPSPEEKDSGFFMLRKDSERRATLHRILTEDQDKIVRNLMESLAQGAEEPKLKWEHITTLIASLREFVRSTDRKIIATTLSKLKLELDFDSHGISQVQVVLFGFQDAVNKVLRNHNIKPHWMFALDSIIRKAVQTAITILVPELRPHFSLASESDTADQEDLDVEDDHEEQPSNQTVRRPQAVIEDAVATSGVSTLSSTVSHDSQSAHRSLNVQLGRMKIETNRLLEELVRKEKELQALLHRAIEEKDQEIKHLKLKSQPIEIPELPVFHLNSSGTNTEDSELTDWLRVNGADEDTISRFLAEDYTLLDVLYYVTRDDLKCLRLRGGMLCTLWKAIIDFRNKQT

For assay [5], the target named is LOK (Homo sapiens, UniProt O94804).
Chain of LOK (O94804 whole entry): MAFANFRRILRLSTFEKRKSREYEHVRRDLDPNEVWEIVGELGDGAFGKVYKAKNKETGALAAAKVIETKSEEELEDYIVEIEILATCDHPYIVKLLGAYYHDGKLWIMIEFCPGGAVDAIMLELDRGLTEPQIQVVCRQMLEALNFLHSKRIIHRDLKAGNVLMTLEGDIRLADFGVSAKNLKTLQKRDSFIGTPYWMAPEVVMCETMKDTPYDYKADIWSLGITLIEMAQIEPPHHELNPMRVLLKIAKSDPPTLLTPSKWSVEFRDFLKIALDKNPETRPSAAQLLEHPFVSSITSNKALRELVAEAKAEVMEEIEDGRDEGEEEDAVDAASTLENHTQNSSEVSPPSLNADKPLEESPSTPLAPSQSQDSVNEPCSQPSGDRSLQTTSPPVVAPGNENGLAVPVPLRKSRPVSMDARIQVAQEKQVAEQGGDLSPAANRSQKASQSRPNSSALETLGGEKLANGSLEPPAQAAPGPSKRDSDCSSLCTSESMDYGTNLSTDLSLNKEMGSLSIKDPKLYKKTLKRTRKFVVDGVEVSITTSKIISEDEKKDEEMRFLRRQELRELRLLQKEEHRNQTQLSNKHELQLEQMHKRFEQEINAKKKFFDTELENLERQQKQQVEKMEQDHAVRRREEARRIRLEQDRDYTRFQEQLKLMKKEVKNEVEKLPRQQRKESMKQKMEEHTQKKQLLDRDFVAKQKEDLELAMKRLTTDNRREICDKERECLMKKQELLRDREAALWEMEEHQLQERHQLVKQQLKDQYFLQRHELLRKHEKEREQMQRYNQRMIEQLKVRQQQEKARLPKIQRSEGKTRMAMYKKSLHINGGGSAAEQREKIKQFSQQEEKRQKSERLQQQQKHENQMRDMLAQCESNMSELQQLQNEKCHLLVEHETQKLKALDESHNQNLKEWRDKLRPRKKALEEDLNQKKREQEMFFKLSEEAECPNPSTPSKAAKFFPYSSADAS
Assay [6] addresses OSR1 (Homo sapiens, UniProt O95747).
Assay [7] deals with T3, MARK4 (Homo sapiens, UniProt Q96L34).
T3 sequence (Q96L34 1-752): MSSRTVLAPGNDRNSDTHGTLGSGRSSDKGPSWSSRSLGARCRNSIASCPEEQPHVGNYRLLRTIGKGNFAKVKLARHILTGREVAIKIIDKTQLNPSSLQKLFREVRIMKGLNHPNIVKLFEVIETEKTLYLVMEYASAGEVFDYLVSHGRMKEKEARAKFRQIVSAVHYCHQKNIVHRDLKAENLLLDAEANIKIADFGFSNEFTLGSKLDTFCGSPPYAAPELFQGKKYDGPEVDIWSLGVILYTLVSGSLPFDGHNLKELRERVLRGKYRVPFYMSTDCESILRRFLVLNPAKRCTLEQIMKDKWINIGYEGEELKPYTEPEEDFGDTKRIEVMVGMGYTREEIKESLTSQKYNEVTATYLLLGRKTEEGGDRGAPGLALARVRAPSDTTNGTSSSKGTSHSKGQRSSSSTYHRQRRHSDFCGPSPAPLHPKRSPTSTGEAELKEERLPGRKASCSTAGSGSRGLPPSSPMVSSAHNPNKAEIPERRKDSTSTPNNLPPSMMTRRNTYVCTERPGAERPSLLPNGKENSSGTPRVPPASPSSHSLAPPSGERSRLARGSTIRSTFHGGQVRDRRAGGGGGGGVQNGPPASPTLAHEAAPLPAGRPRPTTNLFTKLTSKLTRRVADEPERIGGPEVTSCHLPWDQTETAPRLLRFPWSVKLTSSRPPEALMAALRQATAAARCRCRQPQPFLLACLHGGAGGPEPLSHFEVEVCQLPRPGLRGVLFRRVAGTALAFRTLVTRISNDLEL

Assay [8] deals with DAPK1 (Homo sapiens, UniProt P53355).
Chain of DAPK1 (P53355 whole entry): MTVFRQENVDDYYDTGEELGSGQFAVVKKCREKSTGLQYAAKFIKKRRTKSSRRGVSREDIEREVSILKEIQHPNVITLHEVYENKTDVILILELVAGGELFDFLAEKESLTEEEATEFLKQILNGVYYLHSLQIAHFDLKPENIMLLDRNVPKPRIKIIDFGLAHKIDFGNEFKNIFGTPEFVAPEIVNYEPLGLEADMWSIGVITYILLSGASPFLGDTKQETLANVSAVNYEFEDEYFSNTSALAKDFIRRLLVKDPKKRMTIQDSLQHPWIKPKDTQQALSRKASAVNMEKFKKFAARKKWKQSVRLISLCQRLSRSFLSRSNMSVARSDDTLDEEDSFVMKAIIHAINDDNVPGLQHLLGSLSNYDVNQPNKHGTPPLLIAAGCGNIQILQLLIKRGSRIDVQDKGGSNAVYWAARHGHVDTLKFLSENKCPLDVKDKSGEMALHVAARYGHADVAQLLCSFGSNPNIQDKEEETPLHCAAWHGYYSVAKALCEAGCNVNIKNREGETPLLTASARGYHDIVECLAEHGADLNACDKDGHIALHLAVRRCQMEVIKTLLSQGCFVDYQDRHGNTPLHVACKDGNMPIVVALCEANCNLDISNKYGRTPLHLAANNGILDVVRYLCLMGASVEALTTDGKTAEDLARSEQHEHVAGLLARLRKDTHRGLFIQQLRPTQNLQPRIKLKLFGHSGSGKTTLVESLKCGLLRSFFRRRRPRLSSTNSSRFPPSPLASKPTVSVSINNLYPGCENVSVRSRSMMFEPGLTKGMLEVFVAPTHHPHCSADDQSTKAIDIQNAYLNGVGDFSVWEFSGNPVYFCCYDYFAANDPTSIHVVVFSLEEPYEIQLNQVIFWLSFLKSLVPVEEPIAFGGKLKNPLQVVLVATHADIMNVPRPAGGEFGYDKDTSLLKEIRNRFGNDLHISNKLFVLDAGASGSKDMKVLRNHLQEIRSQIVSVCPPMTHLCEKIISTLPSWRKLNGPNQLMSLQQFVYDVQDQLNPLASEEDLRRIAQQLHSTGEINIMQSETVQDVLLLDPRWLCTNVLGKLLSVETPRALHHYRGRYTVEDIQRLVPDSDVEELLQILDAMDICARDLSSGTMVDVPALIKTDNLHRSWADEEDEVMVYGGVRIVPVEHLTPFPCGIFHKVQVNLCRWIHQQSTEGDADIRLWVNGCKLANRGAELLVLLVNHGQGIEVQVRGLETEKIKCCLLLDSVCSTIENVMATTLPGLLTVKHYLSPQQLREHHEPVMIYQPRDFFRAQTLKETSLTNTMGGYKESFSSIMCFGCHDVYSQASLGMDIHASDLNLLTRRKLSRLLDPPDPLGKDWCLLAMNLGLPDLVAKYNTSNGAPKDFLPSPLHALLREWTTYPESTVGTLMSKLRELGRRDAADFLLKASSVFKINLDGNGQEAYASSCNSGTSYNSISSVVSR

Where two headings read alike, the source gives them in different places.

Chain of NDR2 (Q9Y2H1 whole entry): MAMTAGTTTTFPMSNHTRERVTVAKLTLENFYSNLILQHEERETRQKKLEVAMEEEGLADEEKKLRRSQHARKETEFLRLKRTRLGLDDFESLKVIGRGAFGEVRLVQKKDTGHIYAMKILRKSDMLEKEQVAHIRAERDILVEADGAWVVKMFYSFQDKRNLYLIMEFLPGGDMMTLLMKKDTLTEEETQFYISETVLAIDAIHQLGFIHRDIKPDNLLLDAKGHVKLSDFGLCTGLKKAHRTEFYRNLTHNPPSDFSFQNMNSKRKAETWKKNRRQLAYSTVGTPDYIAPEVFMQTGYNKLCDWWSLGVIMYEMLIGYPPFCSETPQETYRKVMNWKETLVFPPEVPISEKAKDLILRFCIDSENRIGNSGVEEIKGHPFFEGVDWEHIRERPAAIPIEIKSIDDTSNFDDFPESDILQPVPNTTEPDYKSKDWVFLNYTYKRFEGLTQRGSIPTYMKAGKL
Chain of EpHA4 (P54764 whole entry): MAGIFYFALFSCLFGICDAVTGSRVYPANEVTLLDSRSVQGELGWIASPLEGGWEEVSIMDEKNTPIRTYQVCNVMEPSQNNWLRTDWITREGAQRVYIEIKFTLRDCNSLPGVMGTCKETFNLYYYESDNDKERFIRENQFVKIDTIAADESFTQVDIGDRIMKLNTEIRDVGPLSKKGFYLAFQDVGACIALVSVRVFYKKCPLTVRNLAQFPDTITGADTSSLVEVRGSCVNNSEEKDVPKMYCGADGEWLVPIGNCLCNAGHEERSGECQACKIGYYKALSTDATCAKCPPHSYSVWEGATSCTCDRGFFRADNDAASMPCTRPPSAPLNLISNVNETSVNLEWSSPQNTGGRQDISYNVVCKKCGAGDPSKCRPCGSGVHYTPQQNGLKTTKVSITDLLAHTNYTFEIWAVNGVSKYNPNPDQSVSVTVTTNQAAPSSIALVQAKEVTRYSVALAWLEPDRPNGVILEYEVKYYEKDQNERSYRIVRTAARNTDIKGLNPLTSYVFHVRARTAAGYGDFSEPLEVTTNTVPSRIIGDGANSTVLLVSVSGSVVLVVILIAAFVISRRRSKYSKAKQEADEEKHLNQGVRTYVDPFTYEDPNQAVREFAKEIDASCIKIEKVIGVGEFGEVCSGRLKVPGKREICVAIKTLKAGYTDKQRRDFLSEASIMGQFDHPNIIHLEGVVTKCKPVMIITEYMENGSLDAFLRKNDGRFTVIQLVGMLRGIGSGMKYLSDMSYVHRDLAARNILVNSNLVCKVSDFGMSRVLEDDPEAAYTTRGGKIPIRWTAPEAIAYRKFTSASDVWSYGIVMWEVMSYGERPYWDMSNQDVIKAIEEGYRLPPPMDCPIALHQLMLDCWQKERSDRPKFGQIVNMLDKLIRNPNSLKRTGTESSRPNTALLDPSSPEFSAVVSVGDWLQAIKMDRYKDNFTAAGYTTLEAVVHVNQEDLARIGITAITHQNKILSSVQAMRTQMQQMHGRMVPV
Chain of OSR1 (O95747 whole entry): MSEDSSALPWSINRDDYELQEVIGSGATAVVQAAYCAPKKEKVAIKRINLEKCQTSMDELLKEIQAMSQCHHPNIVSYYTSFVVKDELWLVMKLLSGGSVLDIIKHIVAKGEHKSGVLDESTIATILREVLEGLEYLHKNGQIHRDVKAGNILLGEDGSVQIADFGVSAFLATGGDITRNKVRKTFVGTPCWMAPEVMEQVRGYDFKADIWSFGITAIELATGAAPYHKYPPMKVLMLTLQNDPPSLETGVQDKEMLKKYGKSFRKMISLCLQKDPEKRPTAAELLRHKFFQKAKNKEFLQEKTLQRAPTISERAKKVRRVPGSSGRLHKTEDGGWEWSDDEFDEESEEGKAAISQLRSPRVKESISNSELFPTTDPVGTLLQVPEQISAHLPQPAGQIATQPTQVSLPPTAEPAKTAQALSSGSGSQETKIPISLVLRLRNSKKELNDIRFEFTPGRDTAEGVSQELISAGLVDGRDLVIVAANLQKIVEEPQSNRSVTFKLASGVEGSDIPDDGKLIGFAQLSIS

Consider `CNc1ncc2cc(-c3ccccc3Cl)c(=O)n(CCCCN)c2n1` [compound 4, 8-(4-Aminobutyl)-6-(2-chlorophenyl)-2-(methylamino)pyrido[2,3-d]pyrimidin-7(8H)-one], for which the ΔTm at 10 µM is 0.5 °C in assay [1] (read-out: dTm MR21 (4)); -0.5 °C in assay [2] (read-out: dTm MR21 (4)); 4.9 °C in assay [3] (read-out: dTm MR21 (4)); 2.9 °C in assay [4] (read-out: dTm MR21 (4)); 5.4 °C in assay [5] (read-out: dTm MR21 (4)); 1.3 °C in assay [6] (read-out: dTm MR21 (4)). The ΔTm at 10 µM in assay [7] (read-out: dTm MR21 (4)) is 3 °C; in assay [8] (read-out: dTm MR21 (4)), -0.2 °C.
Consider `CNc1ncc2cc(-c3cc(Br)ccc3Cl)c(=O)n(CCCCN)c2n1` [compound 6, 8-(4-Aminobutyl)-6-(5-bromo-2-chlorophenyl)-2-(methylamino)pyrido[2,3-d]pyrimidin-7(8H)-one], for which the ΔTm at 10 µM in assay [1] (read-out: dTm 6) was 0.7 °C; in assay [2] (read-out: dTm 6), -0.2 °C; in assay [4] (read-out: dTm 6) it was 0.9 °C; in assay [5] (read-out: dTm 6) it was 2.4 °C; in assay [6] (read-out: dTm 6), 0.3 °C; in assay [7] (read-out: dTm 6), 1.7 °C. Moreover, the ΔTm at 10 µM in assay [8] (read-out: dTm 6) was -0.2 °C.
Regarding `CNc1ncc2cc(-c3ccc(-c4cccc(C)n4)cc3Cl)c(=O)n(CC3OCC(N)CO3)c2n1` (centres unmarked) [compound 2, G-5555], the “dTm G-5555 (2)” value in assay [1] (10 µM, binder) is 3.5 °C; in assay [2] (10 µM, binder), -0.3 °C; in assay [4] (10 µM, binder), 8.9 °C; in assay [5] (10 µM, binder), 10.2 °C; in assay [6] (10 µM, binder) it was 0.2 °C; in assay [7] (10 µM, binder), 7.7 °C. Moreover, the “dTm G-5555 (2)” value in assay [8] (10 µM, binder) is -1.0 °C.
Regarding `CNc1ncc2cc(-c3cc(F)ccc3F)c(=O)n(CCCCN)c2n1` [compound 5, 8-(4-Aminobutyl)-6-(2,5-difluorophenyl)-2-(methylamino)pyrido[2,3-d]pyrimidin-7(8H)-one], the ΔTm at 10 µM in assay [1] (read-out: dTm MR22 (5)) is 1.6 °C; in assay [2] (read-out: dTm MR22 (5)), 0.1 °C; in assay [3] (read-out: dTm MR22 (5)), 3 °C; in assay [4] (read-out: dTm MR22 (5)) it was 1 °C; in assay [5] (read-out: dTm MR22 (5)) it was -0.4 °C; in assay [6] (read-out: dTm MR22 (5)), -0.8 °C. Besides, the results for the ΔTm at 10 µM in assay [7] (read-out: dTm MR22 (5)) and in assay [8] (read-out: dTm MR22 (5)) were 0 °C and -0.7 °C, respectively.
Turning to `CNc1ncc2cc(-c3cc(Br)ccc3Cl)c(=O)n(C[C@H]3OC[C@H](N)CO3)c2n1` [compound 7, 8-(((2r,5r)-5-Amino-1,3-dioxan-2-yl)methyl)-6-(5-bromo-2-chlorophenyl)-2-(methylamino)pyrido[2,3-d]pyrimidin-7(8H)-one], the ΔTm at 10 µM in assay [1] (read-out: dTm 7) was -0.1 °C; in assay [2] (read-out: dTm 7) it was 0.1 °C; in assay [3] (read-out: dTm 7), 3.6 °C; in assay [4] (read-out: dTm 7) it was 0.8 °C; in assay [5] (read-out: dTm 7), 2.1 °C; in assay [6] (read-out: dTm 7), 0 °C. The values for the ΔTm at 10 µM in assay [7] (read-out: dTm 7) and in assay [8] (read-out: dTm 7) were 0.8 °C and 0.1 °C, respectively.
